Assay results: patent publication US5824657A, “Aminoacyl sulfamides for the treatment of hyperproliferative disorders” (priority 1997, dated 1998)

Columns and labels:
[1] = format: in vitro ADME, human
Method: Five formulations of Compound XIV were prepared for in vitro study. The formulations are represented in Table III
Franz static diffusion chambers were filled with a 4% BSA isotonic buffered saline and equilibrated to a temperature of 37° C. by a circulating water pump. Excised human cadaver skin (~0.2 mm thickness), which is either intact or tape-stripped, is placed onto each chamber.
The test formulations containing non-radioactive Compound XIV were spiked with tritiated Compound XIV. The specific radioactivity was about 0.05 μCi/mg test formulation. Spiked formulations were applied to the skin surface. The specific radioactivity in the stratum corneum, epidermis, dermis and the reservoir were measured at 1, 3, 6 and 24 h time points by liquid scintillation counting, to investigate cumulative penetration at each time point. The specific activity is expressed as a percentage relative to the total recovery from the reservoir, skin wipes, and the respective skin layers at the end of each experiment.
Each of the five formulations were tested on intact skin (5 replicates each) and tape-stripped skin (only in one diffusion cell) to investigate cumulative penetration at 0, 1, 3, 6, and 24 hours and tissue recovery was measured at 24 hours. […]

[2] = test system: aminoacyl-tRNA synthetases (aaRS) isolated from HeLa cells; test: IC50 determination, aaRS charging and trichloroacetic acid precipitation assay, aaRS partially purified from HeLa cell extracts; format: biochemical; conditions: preincubation 20 minutes at 25° C., reaction 5-20 minutes
Method: IC50 determinations for the aminoacyl-tRNA synthetases (aaRS) isolated from HeLa cells were carried out using a modification of the aaRS charging and trichloroacetic acid precipitation assay described previously (see examples: D. Kern et. al., Biochemie, 61, 1257-1272 (1979) and J. Gilbart et. al. Antimicrobial Agents and Chemotherapy, 37(1), 32-38 (1993)). […] For practical purposes, the minimal acceptable value is approximately 2000 cpm per 10 minute reaction. The final dilution of the HeLa extract in the assays for the aaRS enzymes varies from 50 to 1200-fold.
Test compounds were typically present as serial dilutions in concentrations ranging from 0.35 nM to 35 μM. Test compound solutions were prepared by dissolving test compounds in 100% dimethyl sulfoxide and diluting to the final concentration with 50 mM HEPES, pH 7.5. IC50 determinations were typically performed in duplicate with each experiment containing 4-8 concentrations of test compound and with duplicate controls containing no inhibitor.
The reaction was incubated at 25° C. for 5-20 minutes. At specified time points a 15 microliter aliquot was removed and added to a well of a Millipore filtration plate (Multiscreen-FB, MAFB NOB 10) containing 100 microliters of cold 5% (wt/vol) trichloroacetic acid. Trichloroacitic acid precipitable material was collected by filtration on a Millipore Multiscreen filtration station, washed twice with cold 5% trichloroacetic acid, twice with water, and dried. Plates were typically allowed to air dry for several hours or baked at 50° C. in a vacuum oven for 30 minutes. The radioactivity on the dried plates was quantitated by the addition of Packard Microscint-20 to the wells and counting with a Packard TopCount scintillation counter.
Inhibitor activity typically was reported as a percentage of the control aaRS activity. […] The IC50 (in nM, Hela Cells) values of representative compounds of the present invention are listed in column 5 of Table I.

[3] = test system: human epidermoid carcinoma cell line A-253 (ATCC HTB 41); test: MTT assay, human epidermoid carcinoma cell line; format: cell-based; conditions: A253, MTT assay, exposure 72 hours, plot extended by eye for compounds active at lowest dose, read-out: IC50 Human Epidermoid Carcinoma Cells ATCC # HTB 41
Method: The MTT assay was used as a model to measure the inhibitory effects of the compounds of Formula I. The MTT assay is considered the most convenient modern assay for the determination of cell viability and cell proliferation. An MTT assay kit is commercially available (Chemicon International Inc., Temecula, Calif.). The MTT assay was performed according to manufacturer's instructions as outlined below.
A human epidermoid carcinoma cell line, designated as A-253 (ATCC HTB 41), was obtained in frozen vials from the American Type Culture Collection, Rockville, Md. Monolayer cultures were established from the vials by growth in RPMI 1640 medium supplemented with 10% fetal bovine serum (heat-inactivated), 2 mM L-glutamine, and pen-strep (100 units/ml; 100 μg/ml). The cultures were incubated at 37±1.5° C. in 5±1% CO2 in humidified air and were passaged weekly to avoid overgrowth. The laboratory cultures used for the present study were at passage seven after receipt of frozen stocks from ATCC.
Compounds of Formula I in powder form were stored at room temperature in plastic micro centrifuge tubes. Each tube was placed in a plastic bag containing desiccant. Each test compound was prepared as a 2 mg/ml solution in RPMI 1640 medium (non-supplemented) on the day of use, and the appropriate dilutions were prepared with the same vehicle.
Each compound was handled by sterile techniques in Class II, Type B biological safety cabinets.
The reference control compound was methotrexate at concentrations of 0.5 μg/ml to 50 μg/ml. A 1 mg/ml stock was prepared on the day of dosing and diluted to the appropriate concentrations using RPMI 1640 medium (non-supplemented).
A blank control was included in the MTT assay in order to determine the absorbance associated with the absence of any cells. This control was RPMI 1640 culture medium carried through the same procedures used to culture the cells in the microwell plates and to conduct the MTT assay color development. The microwell plate reader was zeroed against the blank control prior to recording the absorbance in the test wells.
Laboratory monolayer cultures of A-253 cells were trypsinized and seeded at a concentration of 24,000 cells in 0.05 ml of complete RPMI 1640 culture medium per well in 96-well plates. Eight wells in a column were seeded for each test condition. The blank control was prepared by adding 0.05 ml of culture medium (no cells) to 8 wells in the first column of each plate. A separate microwell plate was used for each compound of Formula I.
The test compound treatments were initiated immediately after seeding the cells by adding 0.05 ml of treatment medium to each microwell. Ten different test compound concentrations were prepared in culture medium (without serum), and each concentration was applied to a volume of eight wells on the appropriate plate. The final concentrations in the wells were 1000, 500, 250, 100, 50, 25, 10, 5, 2.5, and 1 μg/ml.
An untreated (zero-dose) condition was included as a column of 8 wells on each plate. The zero-dose and blank control wells received 0.05 ml of culture medium (without serum). The microwell plates were placed in an incubator at 37±1.5° C. in 5% CO2 in humidified air for an exposure period of 72±0.5 hours.
After the exposure period, 0.1 ml of MTT dye solution (0.5 mg/ml in serum free RPMI 1640 medium) was added to each micowell. The cultures were returned to the incubator for 2±0.1 hours. Then the medium was removed from each well and placed into a clean microwell plate for temporary storage. A volume of 0.1 ml of color development solution (Solution C, isopropanol with 0.04M HCl, Chemicon MTT Assay kit, Chemicon International Inc., Temecula, Calif.) was added to each new microwell. The contents were carefully mixed and allowed to sit at room temperature for approximately 1 hour. The medium that was saved from each microwell then was pipetted back into the well from which it originally came. […]

[4] = test system: normal human skin fibroblasts cell line ATCC CRL 1501; test: MTT assay, normal skin fibroblasts; format: cell-based; conditions: Skin fibroblast, similar manner to HTB 41 assay
Method: The MTT assay was used as a model to measure the inhibitory effects of the compounds of Formula I. The MTT assay is considered the most convenient modern assay for the determination of cell viability and cell proliferation. […] The MTT assay was performed according to manufacturer's instructions as outlined below.
The cultures were returned to the incubator for 2±0.1 hours. Then the medium was removed from each well and placed into a clean microwell plate for temporary storage. A volume of 0.1 ml of color development solution (Solution C, isopropanol with 0.04M HCl, Chemicon MTT Assay kit, Chemicon International Inc., Temecula, Calif.) was added to each new microwell. […] The absorbance at 540 nm wavelength was determined in a microwell plate reader within two hours of the final preparation of the plates.
The absorbance at 540 nm was recorded for each well by the microwell plate reader after the instrument was zeroed against the blank controls for each plate. The mean absorbance for each test condition was calculated and compared to the mean absorbance for the zero-dose wells in order to obtain percent values. […]

[5] = Acute toxicity in the mouse, intraperitoneal
Method: Six groups containing 5 CD-1 female mice (Charles River Lab, Mass.) weighing 19-23 g were used in the experiment. Water and Agway rodent chow were provided ad libitum throughout the study. The laboratory animals were handled according to the institutional animal husbandry Standard Operating Procedures.
The solution was filtered with 0.2 μm Nalgene syringe filter and then further diluted serially with normal saline by 5-fold (0.6 ml to 3.0 ml) to 0.016 mg/ml. Group 1 animals were injected intraperitoneally (i.p.) with 10 ml/kg normal saline as negative controls. Groups 2 to 6 were given Compound XIV i.p. at 100, 20, 4, 0.8 and 0.16 mg/kg, respectively.
The LD50 of the compound was calculated by the Method of Probits (See Probit Analysis, 3rd Edition, D. J. Finney, Cambridge University Press, Cambridge, 1971). All surviving animals were sacrificed after the last observation on seventh day post-treatment.

bacterial growth = conditions: Osada and Isono 1985; cited from earlier work

| SMILES | penetration of target tissue, epidermis [1] | IC50 [2] | IC50 [3] | IC50 [4] | mortality ([5]; i.p. 100 mg/kg (group 2)) | 95% confidence limit of the LD50 ([5]; mouse, in vivo, ip) | LD50 at 168 h ([5]; mouse, in vivo, ip) | tolerability ([5]; mouse, in vivo, ip) | body weight loss after injection ([5]; mouse, in vivo, ip, 20 mg/kg) | symptoms after dosing ([5]; mouse, in vivo, ip, 20 mg/kg) | symptoms after dosing ([5]; mouse, in vivo, ip, 100 mg/kg) | inhibition of bacterial growth (bacterial growth) |
| --- | --- | --- | --- | --- | --- | --- | --- | --- | --- | --- | --- | --- |
| Nc1ncnc2c1ncn2[C@@H]1O[C@H](CNS(=O)(=O)NC(=O)[C@@H](N)Cc2ccccc2)[C@@H](O)[C@H]1O [Compound XIV, 5'-deoxy-adenosine 5'-N-(N-L-phenylalanyl)sulfamide] | penetrates the target tissue, epidermis, in significant concentration at 6 hours and levels are generally increased at 24 hours | 5 nM | 0.53 µM | 5.58 µM | Most of the group 2 mice died between 8 to 24 hours after injection | 24 to 63 mg/kg | 44 mg/kg | a high dose of Compound XIV was tolerated | about 10% | no unusual symptoms observed | showed loose hair starting at 3-4 hours after dosing and they also lost their appetite and became less active | – |
| C[C@H](N)C(=O)NS(=O)(=O)OC[C@H]1O[C@@H](n2cnc3c(N)nc(Cl)nc32)[C@H](O)[C@@H]1O [ascamycin] | – | – | – | – | – | – | – | – | – | – | – | ineffective inhibitor against bacterial growth |
